Reference: ChEMBL document CHEMBL4052598, “Discovery of C-Glycosylpyranonaphthoquinones in Streptomyces sp. MBT76 by a Combined NMR-Based Metabolomics and Bioinformatics Workflow” (2017)
Active and inactive are the calls of the source. The rule behind the calls is not given here.

Assays:
Type in all cases: functional
[1] = test system: Bacillus subtilis; assay: Antimicrobial activity against Bacillus subtilis subsp. subtilis str. 168 assessed as growth inhibition zone after 18 hrs by disc diffusion method
[2] = test system: Staphylococcus aureus; assay: Antimicrobial activity against Staphylococcus aureus CECT976 assessed as growth inhibition zone after 18 hrs by disc diffusion method
[3] = test system: Escherichia coli; assay: Antimicrobial activity against Escherichia coli JM109 assessed as growth inhibition zone after 18 hrs by disc diffusion method
[4] = test system: Pseudomonas aeruginosa; assay: Antimicrobial activity against Pseudomonas aeruginosa PAO1 assessed as growth inhibition zone after 18 hrs by disc diffusion method

SMILES | inhibition zone (IZ) [1] [mm] | inhibition zone (IZ) [2] [mm] | inhibition zone (IZ) [3] [mm] | inhibition zone (IZ) [4] [mm] | inhibition [1] | inhibition [2] | inhibition [3] | inhibition [4]
CN[C@@H]1[C@@H](O[C@H]2O[C@H](CO)[C@@H](N)[C@H](O)[C@H]2O)OC2C[C@@H](N)[C@@H](O[C@H]3[C@H](O)[C@@H](O)[C@H](N)C[C@@H]3N)OC2[C@@H]1O (stereo partly specified) [APRAMYCIN] | 10 | 7 | 7 | 15 |  |  |  | 
CN[C@H]1CC[C@H](c2ccc(O)c3c2C(=O)C24OC2([C@@H](C)O[C@@H]2CC(=O)O[C@@H]24)[C@H]3O)O[C@@H]1C (stereo partly specified) |  |  |  |  | Active | Active | inactive | inactive
CN[C@H]1CC[C@H](c2ccc(O)c3c2C(=O)C24OC2([C@@H](C)O[C@H](CC(=O)O)[C@@H]4O)[C@H]3O)O[C@@H]1C (stereo partly specified) |  |  |  |  | Active | Active | inactive | inactive
CC1(C)S[C@@H]2[C@H](NC(=O)[C@H](N)c3ccccc3)C(=O)N2[C@H]1C(=O)O [AMPICILLIN] | 23 | 10 | 20 | 7 |  |  |  | 
